{"source": "paper PMC8236452", "about": "“Pharmacokinetics and safety of rucaparib in patients with advanced solid tumors and hepatic impairment” (Cancer Chemotherapy and Pharmacology, 2021)", "key": {"[1]": {"assay": "Urine pharmacokinetics (Ae0–24, CLR) after a single oral dose of rucaparib 600 mg in patients with advanced solid tumors", "type": "in vivo, human", "details": "urine, single oral rucaparib 600 mg; for CL renal: human, po, 600 mg", "from_the_text": "Stable deuterium-labeled analytes were used as internal standards.\nPK parameters were estimated from the concentration–time profiles."}, "[2]": {"set-up": "method as in PMID 29799676, PMID 31250355, PMID 28264872", "details": "600 mg BID, cited from earlier work"}, "[3]": {"details": "cited from earlier work"}, "[4]": {"set-up": "method as in PMID 32129697", "details": "in vitro; cited from earlier work"}, "[5]": {"details": "cited from earlier work", "remark": "listed apart in the source"}, "[6]": {"test_system": "patients", "set-up": "method as in PMID 28264872", "details": "dose escalation study; not reached; cited from earlier work"}, "[7]": {"assay": "Plasma pharmacokinetics after a single oral dose of rucaparib 600 mg in patients with advanced solid tumors, by hepatic function group", "details": "for AUC(0-inf) / AUC(0-t) / Cmax: human, plasma, 600 mg; for AUC(0-t): AUC0–last", "procedure": "In Part 1, patients received a single oral dose of rucaparib 600 mg on day 1; PK samples were collected and safety monitored through day 7.\nSample collection, processing, and shipping were conducted according to standardized protocols shared across study sites. Plasma samples were collected for PK analysis at the predose assessment and at 1, 2, 3, 4, 8, 12, 24, 48, 72, 96, 120, and 144 h postdose. A predose urine sample was collected less than 12 h prior to study drug administration. Total urine was collected 0–12 h and 12–24 h postdose. Total (bound and unbound) concentrations of rucaparib and its metabolite M324 in plasma and urine samples were determined by Q Squared Solutions BioSciences (Ithaca, NY, USA) using validated liquid chromatography mass spectrometry/mass spectrometry methods. Stable deuterium-labeled analytes were used as internal standards. The assay calibration ranges for plasma samples were 5–10,000 ng/mL for rucaparib and 1–1000 ng/mL for M324 with lower limits of quantification (LLOQ) of 5.00 and 1.00 ng/mL, respectively. For urine samples, the calibration range was 500–50,000 ng/mL for both rucaparib and M324, with a LLOQ of 500 ng/mL for both analytes. The precision was within 9.3% CV, and the accuracy was within ± 6.2%.\nPK parameters were estimated from the concentration–time profiles. Actual elapsed time after dosing was used to estimate plasma PK parameters based on noncompartmental methods using Phoenix® WinNonlin® version 8.1.0 (Certara USA, Inc., Princeton, NJ, USA). […] Exploratory PK parameters for M324 calculated based on plasma and urine concentration-time data were Cmax, AUC0–last, AUC0–inf, t1/2, tmax, Ae0–24, and CLR, as data allowed.\nPK parameters were calculated by noncompartmental analysis, analyzed using descriptive statistics, and presented by hepatic functional status. Analysis of variance (ANOVA) was used to compare PK parameters (e.g., Cmax, AUC0–last, and AUC0–inf) between the normal hepatic function group and the moderate hepatic impairment group per NCI-ODWG criteria. PK values were log-transformed before analysis. Baseline covariates (e.g., creatinine clearance [CLcr], sex, age, BMI, and ECOG PS) were tested for any significant effect (P value < 0.05). Geometric least-squares means were used to calculate the ratios of the PK parameters in the hepatic impairment group to those in the control group, along with 90% confidence intervals (CIs). The Wilcoxon rank-sum test was used to compare tmax values between the two groups, and estimates of the median differences were determined, along with 90% CIs. In addition, the relationships between log-transformed PK parameters (AUC0–last, AUC0–inf, Cmax) for rucaparib and M324 and hepatic function parameters (bilirubin and aspartate aminotransferase [AST]) relevant to the classification of hepatic impairment according to NCI-ODWG were explored by a linear regression approach."}, "[8]": {"details": "Child–Pugh mild hepatic impairment"}, "[9]": {"details": "Child–Pugh moderate hepatic impairment"}, "[10]": {"details": "Child–Pugh severe hepatic impairment"}, "[11]": {"details": "NCI-ODWG moderate hepatic impairment"}, "[12]": {"details": "NCI-ODWG normal hepatic function"}, "[13]": {"details": "estimated with 36% absolute oral bioavailability"}, "[14]": {"details": "ANOVA, NCI-ODWG moderate hepatic impairment vs normal hepatic function"}, "[15]": {"details": "Child–Pugh mild hepatic impairment, single oral rucaparib 600 mg"}, "[16]": {"details": "Child–Pugh moderate hepatic impairment, single oral rucaparib 600 mg"}, "[17]": {"details": "Child–Pugh severe hepatic impairment, single oral rucaparib 600 mg"}, "[18]": {"details": "NCI-ODWG moderate hepatic impairment, single oral rucaparib 600 mg"}, "[19]": {"details": "NCI-ODWG normal hepatic function, single oral rucaparib 600 mg"}, "[20]": {"details": "oral, Geometric LS means, ANOVA, NCI-ODWG moderate hepatic impairment (n = 8)"}, "[21]": {"details": "oral, Geometric LS means, ANOVA, NCI-ODWG normal hepatic function (n = 8)"}}, "note": "Read-outs that look alike come from different tables or passages of the source.", "data": [{"smiles": "CNCc1ccc(-c2[nH]c3cc(F)cc4c3c2CCNC4=O)cc1", "note": "[rucaparib]", "values": [{"measurement": "CL renal", "setting": "[1]; Child–Pugh mild hepatic impairment, read-out: CLR, GM", "value": 55.2, "unit": "mL/min"}, {"measurement": "CL renal", "setting": "[1]; Child–Pugh mild hepatic impairment, read-out: CLR, Mean (SD)", "value": 56.7, "unit": "mL/min"}, {"measurement": "CL renal", "setting": "[1]; Child–Pugh mild hepatic impairment, read-out: CLR, Median (min–max)", "value": 59.5, "unit": "mL/min"}, {"measurement": "CL renal", "setting": "[1]; Child–Pugh moderate hepatic impairment, read-out: CLR, GM", "value": 48.8, "unit": "mL/min"}, {"measurement": "CL renal", "setting": "[1]; Child–Pugh moderate hepatic impairment, read-out: CLR, Mean (SD)", "value": 52.3, "unit": "mL/min"}, {"measurement": "CL renal", "setting": "[1]; Child–Pugh moderate hepatic impairment, read-out: CLR, Median (min–max)", "value": 53.7, "unit": "mL/min"}, {"measurement": "CL renal", "setting": "[1]; Child–Pugh severe hepatic impairment, read-out: CLR, GM", "value": 16, "unit": "mL/min"}, {"measurement": "CL renal", "setting": "[1]; Child–Pugh severe hepatic impairment, read-out: CLR, Mean (SD)", "value": 20.1, "unit": "mL/min"}, {"measurement": "CL renal", "setting": "[1]; Child–Pugh severe hepatic impairment, read-out: CLR, Median (min–max)", "value": 20.1, "unit": "mL/min"}, {"measurement": "CL renal", "setting": "[1]; NCI-ODWG moderate hepatic impairment, read-out: CLR, GM", "value": 36.9, "unit": "mL/min"}, {"measurement": "CL renal", "setting": "[1]; NCI-ODWG moderate hepatic impairment, read-out: CLR, Mean (SD)", "value": 46.2, "unit": "mL/min"}, {"measurement": "CL renal", "setting": "[1]; NCI-ODWG moderate hepatic impairment, read-out: CLR, Median (min–max)", "value": 41.1, "unit": "mL/min"}, {"measurement": "CL renal", "setting": "[1]; NCI-ODWG normal hepatic function, read-out: CLR, GM", "value": 52.5, "unit": "mL/min"}, {"measurement": "CL renal", "setting": "[1]; NCI-ODWG normal hepatic function, read-out: CLR, Mean (SD)", "value": 53.5, "unit": "mL/min"}, {"measurement": "CL renal", "setting": "[1]; NCI-ODWG normal hepatic function, read-out: CLR, Median (min–max)", "value": 56.1, "unit": "mL/min"}, {"measurement": "Ae0–24, GM", "setting": "[1]; [8]", "value": 17.6, "unit": "mg"}, {"measurement": "Ae0–24, Mean (SD)", "setting": "[1]; [8]", "value": "20.7 (11.9) mg"}, {"measurement": "Ae0–24, Median (min–max)", "setting": "[1]; [8]", "value": "21.4 (7.69–40.6) mg"}, {"measurement": "Ae0–24, GM", "setting": "[1]; [9]", "value": 28.2, "unit": "mg"}, {"measurement": "Ae0–24, Mean (SD)", "setting": "[1]; [9]", "value": "29.8 (9.93) mg"}, {"measurement": "Ae0–24, Median (min–max)", "setting": "[1]; [9]", "value": "33.2 (16.7–41.5) mg"}, {"measurement": "Ae0–24, GM", "setting": "[1]; [10]", "value": 8.49, "unit": "mg"}, {"measurement": "Ae0–24, Mean (SD)", "setting": "[1]; [10]", "value": "8.89 (3.72) mg"}, {"measurement": "Ae0–24, Median (min–max)", "setting": "[1]; [10]", "value": "8.89 (6.26–11.5) mg"}, {"measurement": "Ae0–24, GM", "setting": "[1]; [11]", "value": 16.0, "unit": "mg"}, {"measurement": "Ae0–24, Mean (SD)", "setting": "[1]; [11]", "value": "19.8 (13.7) mg"}, {"measurement": "Ae0–24, Median (min–max)", "setting": "[1]; [11]", "value": "16.7 (6.26–41.5) mg"}, {"measurement": "Ae0–24, GM", "setting": "[1]; [12]", "value": 22.8, "unit": "mg"}, {"measurement": "Ae0–24, Mean (SD)", "setting": "[1]; [12]", "value": "25.4 (10.9) mg"}, {"measurement": "Ae0–24, Median (min–max)", "setting": "[1]; [12]", "value": "27.0 (7.69–40.6) mg"}, {"measurement": "AUC0–12 h at steady state", "setting": "[2]; 54% CV", "value": 16900, "unit": "h⋅ng/mL"}, {"measurement": "mean steady-state maximum plasma concentration (Cmax,ss)", "setting": "[2]; 54% CV", "value": 1940, "unit": "ng/mL"}, {"measurement": "Median time to steady-state maximum concentration (tmax,ss)", "setting": "[2]", "value": 6840, "unit": "s"}, {"measurement": "time to achieve steady state", "setting": "[2]", "value": 1, "unit": "week"}, {"measurement": "hepatic elimination route, share of total clearance", "setting": "[3]; [13]", "value": "~ 70%"}, {"measurement": "renal elimination route, share of total clearance", "setting": "[3]; [13]", "value": "~ 30%"}, {"measurement": "mean terminal half-life (t1/2)", "setting": "[3]; single oral dose of [14C]-rucaparib 600 mg", "value": 25.9, "unit": "h"}, {"measurement": "metabolic turnover rate", "setting": "[4]", "value": "low"}, {"measurement": "plasma protein binding", "setting": "[5]", "value": 70, "unit": "%"}, {"measurement": "maximum tolerated dose", "setting": "[6]", "value": "> 840", "unit": "mg BID"}, {"measurement": "AUC0-inf, Geometric mean ratio Moderate/normal (90% CI)", "setting": "[7]; [14]", "value": 1.446}, {"measurement": "AUC0–last, Geometric mean ratio Moderate/normal (90% CI)", "setting": "[7]; [14]", "value": "1.335 (0.617–2.891)"}, {"measurement": "Cmax, Geometric mean ratio Moderate/normal (90% CI)", "setting": "[7]; [14]", "value": "0.907 (0.605–1.362)"}, {"measurement": "AUC0-inf, Geometric mean ratio Moderate/normal (90% CI)", "setting": "[7]; ANOVA, NCI-ODWG moderate hepatic impairment vs normal hepatic function, listed as Rucaparib", "value": "1.446 (0.668–3.131)"}, {"measurement": "CL/F, GM", "setting": "[7]; [15]", "value": 64.0, "unit": "L/h"}, {"measurement": "CL/F, Mean (SD)", "setting": "[7]; [15]", "value": "82.2 (59.5) L/h"}, {"measurement": "CL/F, Median (min–max)", "setting": "[7]; [15]", "value": "68.3 (26.4–180) L/h"}, {"measurement": "CL/F, GM", "setting": "[7]; [16]", "value": 23.7, "unit": "L/h"}, {"measurement": "CL/F, Mean (SD)", "setting": "[7]; [16]", "value": "25.1 (8.62) L/h"}, {"measurement": "CL/F, Median (min–max)", "setting": "[7]; [16]", "value": "28.4 (14.6–34.6) L/h"}, {"measurement": "CL/F, GM", "setting": "[7]; [17]", "value": 22.2, "unit": "L/h"}, {"measurement": "CL/F, Mean (SD)", "setting": "[7]; [17]", "value": "39.6 (46.4) L/h"}, {"measurement": "CL/F, Median (min–max)", "setting": "[7]; [17]", "value": "39.6 (6.79–72.4) L/h"}, {"measurement": "CL/F, GM", "setting": "[7]; [18]", "value": 30.2, "unit": "L/h"}, {"measurement": "CL/F, Mean (SD)", "setting": "[7]; [18]", "value": "48.1 (56.8) L/h"}, {"measurement": "CL/F, Median (min–max)", "setting": "[7]; [18]", "value": "29.1 (6.79–180) L/h"}, {"measurement": "CL/F, GM", "setting": "[7]; [19]", "value": 43.7, "unit": "L/h"}, {"measurement": "CL/F, Mean (SD)", "setting": "[7]; [19]", "value": "55.7 (42.7) L/h"}, {"measurement": "CL/F, Median (min–max)", "setting": "[7]; [19]", "value": "33.1 (15.9–133) L/h"}, {"measurement": "AUC(0-inf)", "setting": "[7]; oral, AUC0-inf, Geometric LS means, ANOVA, NCI-ODWG moderate hepatic impairment (n = 8)", "value": 19900, "unit": "ng·h/mL"}, {"measurement": "AUC(0-inf)", "setting": "[7]; oral, AUC0-inf, Geometric LS means, ANOVA, NCI-ODWG normal hepatic function (n = 8)", "value": 13700, "unit": "ng·h/mL"}, {"measurement": "AUC(0-t)", "setting": "[7]; [20]", "value": 17500, "unit": "ng·h/mL"}, {"measurement": "AUC(0-t)", "setting": "[7]; [21]", "value": 13100, "unit": "ng·h/mL"}, {"measurement": "Cmax", "setting": "[7]; [20]", "value": 583, "unit": "ng/mL"}, {"measurement": "Cmax", "setting": "[7]; [21]", "value": 642, "unit": "ng/mL"}, {"measurement": "AUC(0-inf)", "setting": "[7]; po, AUC0–inf, GM, Child–Pugh mild hepatic impairment, single oral rucaparib 600 mg", "value": 9370, "unit": "ng·h/mL"}, {"measurement": "AUC(0-inf)", "setting": "[7]; po, AUC0–inf, GM, Child–Pugh moderate hepatic impairment, single oral rucaparib 600 mg", "value": 25300, "unit": "ng·h/mL"}, {"measurement": "AUC(0-inf)", "setting": "[7]; po, AUC0–inf, GM, Child–Pugh severe hepatic impairment, single oral rucaparib 600 mg", "value": 27100, "unit": "ng·h/mL"}, {"measurement": "AUC(0-inf)", "setting": "[7]; po, AUC0–inf, GM, NCI-ODWG moderate hepatic impairment, single oral rucaparib 600 mg", "value": 19900, "unit": "ng·h/mL"}, {"measurement": "AUC(0-inf)", "setting": "[7]; po, AUC0–inf, GM, NCI-ODWG normal hepatic function, single oral rucaparib 600 mg", "value": 13700, "unit": "ng·h/mL"}, {"measurement": "AUC(0-inf)", "setting": "[7]; po, AUC0–inf, Mean (SD), Child–Pugh mild hepatic impairment, single oral rucaparib 600 mg", "value": 11900, "unit": "ng·h/mL"}, {"measurement": "AUC(0-inf)", "setting": "[7]; po, AUC0–inf, Mean (SD), Child–Pugh moderate hepatic impairment, single oral rucaparib 600 mg", "value": 26800, "unit": "ng·h/mL"}, {"measurement": "AUC(0-inf)", "setting": "[7]; po, AUC0–inf, Mean (SD), Child–Pugh severe hepatic impairment, single oral rucaparib 600 mg", "value": 48300, "unit": "ng·h/mL"}, {"measurement": "AUC(0-inf)", "setting": "[7]; po, AUC0–inf, Mean (SD), NCI-ODWG moderate hepatic impairment, single oral rucaparib 600 mg", "value": 29000, "unit": "ng·h/mL"}, {"measurement": "AUC(0-inf)", "setting": "[7]; po, AUC0–inf, Mean (SD), NCI-ODWG normal hepatic function, single oral rucaparib 600 mg", "value": 17000, "unit": "ng·h/mL"}]}]}
